# In patent US20190231787A1, “METHODS AND COMPOUNDS FOR TREATING ALCOHOL USE DISORDERS AND ASSOCIATED DISEASES” (PHARMATROPHIX, INC., priority 2016, published 2019):
# “Also recorded” adds a separate entry of the source.
# T1: p75NTR (Rattus norvegicus, UniProt P07174)
# T1 construct: from tissue; host or cells: dorsolateral striatum (DLS) of living rats
# T1 sequence (P07174 30-425): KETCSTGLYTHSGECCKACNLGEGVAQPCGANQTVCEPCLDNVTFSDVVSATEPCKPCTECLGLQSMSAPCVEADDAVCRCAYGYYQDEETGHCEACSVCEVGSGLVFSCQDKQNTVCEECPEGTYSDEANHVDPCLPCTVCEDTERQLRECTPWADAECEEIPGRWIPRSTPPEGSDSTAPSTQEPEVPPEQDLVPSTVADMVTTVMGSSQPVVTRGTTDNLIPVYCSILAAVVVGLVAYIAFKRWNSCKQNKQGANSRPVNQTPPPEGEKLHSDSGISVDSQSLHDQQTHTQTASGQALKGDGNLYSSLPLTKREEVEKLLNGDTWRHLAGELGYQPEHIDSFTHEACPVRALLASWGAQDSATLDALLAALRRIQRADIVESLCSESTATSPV
# T2: p75NTR (Homo sapiens, UniProt P08138)
# T2 sequence (P08138 29-427): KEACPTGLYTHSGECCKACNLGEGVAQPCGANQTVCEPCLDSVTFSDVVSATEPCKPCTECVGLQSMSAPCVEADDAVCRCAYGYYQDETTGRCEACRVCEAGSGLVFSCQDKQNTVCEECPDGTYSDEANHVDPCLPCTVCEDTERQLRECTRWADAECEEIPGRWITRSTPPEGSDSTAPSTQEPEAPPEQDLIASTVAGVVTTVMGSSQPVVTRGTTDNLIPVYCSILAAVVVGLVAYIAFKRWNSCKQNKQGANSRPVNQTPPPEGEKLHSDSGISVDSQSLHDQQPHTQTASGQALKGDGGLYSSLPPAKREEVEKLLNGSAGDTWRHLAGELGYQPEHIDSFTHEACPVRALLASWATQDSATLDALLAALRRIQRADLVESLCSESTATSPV
# B1: BDNF: Brain-derived neurotrophic factor; Human BDNF was purchased from Sigma-Aldrich (protein, UniProt P23560 19-247, looked up)
# Neurotrophic factor BDNF …: APMKEANIRGQGGLAYPGVRTHGTLESVNGPKAGSRGLTSLADTFEHVIEELLDEDQKVRPNEENNKDADLYTSRVMLSSQVPLEPPLLFLLEEYKNYLDAANMSMRVRRHSDPARRGELSVCDSISEWVTAADKKTAVDMSGGTVTVLEKVPVSKGQLKQYFYETKCNPMGYTKEGCRGIDKRHWNSQCRTTQSYVRALTMDSKKRIGWRFIRIDTSCVCTLTIKRGR
# Legend:
# [1] = target: T1, p75NTR; assay: IA-2BC 1% sucrose drinking after systemic administration of LM11A-31; type: in vivo; details: LM11A-31 150 mg/kg systemic; IA 1% sucrose 2BC 7 weeks; 30 min access
# Procedure: (§1) The procedure was similar to the IA20%-2BC paradigm described above, except that a sucrose (1%) solution was substituted for alcohol. Rats were tested for sucrose intake in response to intra-DLS administration of LM11A-31 or vehicle 1 week after the conclusion of the alcohol-drinking study. Animals were trained to drink sucrose for 2 weeks before the test day. An independent cohort of rats underwent IA-2BC sucrose-drinking paradigm for 7 weeks before systemic administration of LM11A-31.
# (§2) Before the beginning of experiments, rats were habituated for 3 days to intraperitoneal administration by daily injections of saline (0.9% NaCl). LM11A-31 (50-150 mg/kg) or vehicle (0.9% saline) was administered intraperitoneally 2 hours before the beginning of the drinking session. Test days occurred once a week, with two alcohol-drinking sessions without treatment that were performed between injections to allow intake to return to baseline. For the highest dose of LM11A-31, vehicle and drug were tested in different animals.
# To test whether systemic administration of LM11A-31 attenuates binge drinking of sucrose, rats had IA to 1% sucrose in a 2BC paradigm for 7 weeks, and sucrose consumption was measured after 30 min access following LM11A-31 injection.
# [2] = test system: p75NTR-mediated neuronal death; details: Knowles et al., 2013, Tep et al.; cited from earlier work
# [3] = target: T1, p75NTR; assay: IA20%-2BC binge drinking after systemic (intraperitoneal) administration of LM11A-31; type: in vivo; details: 30 min
# Procedure: (§3) At 8 weeks of age, animals were given 24 hours of access to one bottle of 20% alcohol (v/v) and one bottle of tap water concurrently for a total of 21 sessions of 24 hours during a period of 7 weeks. Drinking sessions started at 12:00 P.M. on Monday, Wednesday, and Friday, with 24 or 48 hours (weekend) of alcohol deprivation between the drinking sessions. The water and alcohol bottles were weighed before the beginning of each drinking session, immediately after the first 30 minutes of access to alcohol and at the end of the session. Rats with escalation of alcohol consumption from session 1 to session 18, reaching a baseline of drinking that was higher than 3.5 g/kg/24 h, were selected for the studies.
# as §2, with “animals. […]” for “animals.”
# [4] = target: T2, p75NTR; details: Massa et al., 2006; Longo and Massa, 2013; cited from earlier work
# [5] = target: T1, p75NTR; assay: Intermittent access to 1% sucrose 2BC after intra-DLS administration of LM11A-31; type: in vivo; details: intra-DLS LM11A-31 30 μg/μl; IA-2BC 1% sucrose, 30 min; vs vehicle
# Procedure: as §1
# (§4) Cannula implantation and microinfusions of BDNF and LM11A-31. Four holes were drilled for screws, and two holes were drilled for cannulae implantation (single cannula, C315GA; PlasticsOne). The coordinates for the DLS were +1.2 mm anterior to Bregma and 3.5 mm lateral to the medial suture. The cannulae were implanted into the lateral part of the dorsal striatum (−4.2 mm from the skull surface) and fixed with dental cement. After 1 week of recovery, the alcohol-drinking procedure resumed, and subjects were habituated to the microinjection procedure with two sham injections (injectors were lowered but no infusion took place). The experimental microinfusions began after each rat reacquired a stable level of drinking. BDNF, LM11A-31, or PBS was infused via a 25 μl Hamilton syringe (#1702), 3 h (BDNF) or 2 h (LM11A-31) before the beginning of the alcohol-drinking session. […]
# [6] = target: T1, p75NTR; assay: Intermittent access to 20% alcohol 2BC (IA20%-2BC) binge drinking after intra-DLS infusion of LM11A-31; type: in vivo; details: intra-DLS LM11A-31 30 μg/1 μl per side, vs vehicle
# Procedure: as §3
# as §4, with “place).” for “place). The experimental microinfusions began after each rat reacquired a stable level of drinking. BDNF, LM11A-31, or PBS was infused via a 25 μl Hamilton syringe (#1702), 3 h (BDNF) or 2 h (LM11A-31) before the beginning of the alcohol-drinking session.”
# [7] = test system: Jun kinase; details: Shi et al., 2013; cited from earlier work
# [8] = test system: rats with a history of excessive alcohol drinking; assay: Operant self-administration of alcohol after intra-DLS administration of BDNF; type: in vivo, rat; details: intra-DLS BDNF 0.75 μg/side 3 hours before operant session; 2.5, 10 and 20% alcohol; rats after 5 weeks IA20%-2BC; vs vehicle (PBS)
# Procedure: After 5 weeks of the intermittent access (IA) to 20% alcohol 2BC paradigm (IA20%-2BC), the rats were trained to self-administer alcohol. […] Rats were trained under a fixed ratio 3 schedule; i.e., rats had to press three times to receive one reward. Sessions lasted for the duration of 1 h at the beginning of the training and 30 min after the first 2 weeks. The number of presses on the levers and the number of alcohol deliveries were recorded using MED-PC IV software (Med-Associates).
# Cannula implantation and microinfusions of BDNF and LM11A-31. Four holes were drilled for screws, and two holes were drilled for cannulae implantation (single cannula, C315GA; PlasticsOne). The coordinates for the DLS were +1.2 mm anterior to Bregma and 3.5 mm lateral to the medial suture. The cannulae were implanted into the lateral part of the dorsal striatum (−4.2 mm from the skull surface) and fixed with dental cement. […]
# To test the possibility that BDNF signaling in the DLS is disrupted after chronic excessive alcohol drinking, the ability of the neurotrophic factor to control alcohol self-administration in rats with a history of excessive alcohol drinking was tested. […] The self-administration of three alcohol concentrations was measured. […]
# [9] = test system: rats with history of moderate (10%) alcohol drinking; details: exogenous BDNF into the DLS, shown previously; cited from earlier work
Molecule,binge consumption of sucrose [1],corresponding water intake [1],p75NTR-mediated neuronal death [2],"binge drinking of alcohol ([3]; LM11A-31 150 mg/kg intraperitoneally 2 hours before session, IA20%-2BC 7 weeks, vs vehicle)","water intake ([3]; LM11A-31 50-150 mg/kg intraperitoneally 2 hours before session, IA20%-2BC)","binding between p75NTR and neurotrophins, including BDNF [4]",sucrose intake [5],binge-like alcohol intake ([6]; 2 h before 30 min alcohol binge-drinking session),concurrent water intake ([6]; 2 h before 30 min alcohol session),phosphorylation of Jun kinase [7],amount of alcohol consumed [8],number of alcohol deliveries [8],operant alcohol self-administration [9]
"CC[C@H](C)[C@H](N)C(=O)NCCN1CCOCC1 [LM11A-31, Tris[(2S,3S)-2-amino-3-methyl-N-(2-morpholinoethyl)pentanamide]tetra(monohydrogensulfate), monosulfate]",did not alter,unaltered,blocks,significantly attenuated,without altering,disrupting the binding,unaltered,significantly reduced,without changing,decreases,,,
B1,,,,,,,,,,,does not decrease; also recorded: did not decrease,does not decrease; also recorded: did not decrease,reduces
